{"source": "ChEMBL document CHEMBL1201862", "about": "“PubChem BioAssay data set” (2004)", "key": {"[1]": {"experiment": "viability loss in HepG2 liver cells – cell-based, ATP luminescence, cherry-pick, set 6, cytotoxicity control, dose response (AID 1053125)", "assay_type": "functional"}, "Paired box protein Pax-8": {"biological_target": "Paired box protein Pax-8 (Homo sapiens, UniProt Q06710)", "sequence (Q06710 whole entry)": "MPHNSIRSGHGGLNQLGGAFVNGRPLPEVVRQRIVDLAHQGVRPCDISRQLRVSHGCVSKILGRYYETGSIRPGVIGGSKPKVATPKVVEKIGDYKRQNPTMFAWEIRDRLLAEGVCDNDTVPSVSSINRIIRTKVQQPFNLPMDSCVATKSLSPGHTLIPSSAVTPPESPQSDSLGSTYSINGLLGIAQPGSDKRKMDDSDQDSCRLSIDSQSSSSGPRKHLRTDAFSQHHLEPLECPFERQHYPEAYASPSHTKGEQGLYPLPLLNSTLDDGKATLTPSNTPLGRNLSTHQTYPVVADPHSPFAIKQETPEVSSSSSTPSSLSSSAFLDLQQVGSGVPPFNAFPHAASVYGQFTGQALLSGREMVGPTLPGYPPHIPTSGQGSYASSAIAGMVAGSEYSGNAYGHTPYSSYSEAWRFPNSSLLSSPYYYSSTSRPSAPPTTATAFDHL", "experiment": "PAX8 transcriptional activity inhibition in RMG-I – RMG-I cells, luciferase, cherry-pick, dose response (AID 687027);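 also: luciferase reporter driven by Pax8 target thyroperoxidase promoter measured by SteadyGlo luminescence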", "assay_type": "functional, cell-based"}, "[2]": {"experiment": "OVCAR-3 cell viability loss – plate reader, dry powder samples, PAX8 inhibitor project, dose response (AID 743044)", "assay_type": "functional, cell-based"}, "[3]": {"experiment": "general cell-killing toxicity readout – plate reader, dry powder samples, cytotoxicity control for PAX8 inhibitor project, dose response (AID 743021)", "assay_type": "functional, cell-based"}, "[4]": {"experiment": "OVCAR8 cell viability loss – plate reader, dry powder samples, PAX8 project, dose response (AID 743197)", "assay_type": "functional, cell-based", "details": "OVCAR-8"}, "[5]": {"experiment": "growth inhibition of yeast DHODH-expressing 3D7 parasites – SYBR Green, dry powder samples, dose response (AID 1159570);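 also: parasite growth measured after 72 hours of compound exposure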", "assay_type": "functional, cell-based"}, "[6]": {"experiment": "toxicity to human HepG2 hepatoma cells – cell-based, plate reader, dry powder samples, cytotoxicity control, dose response (AID 1159569);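 also: inhibitor potency with signal falling toward the positive control level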", "assay_type": "functional"}, "[7]": {"experiment": "P. falciparum Dd2 growth inhibitors, dose response, SYBR Green, cherry-picked samples (AID 1159567)", "assay_type": "functional, cell-based"}, "[8]": {"experiment": "Dd2 malaria parasite growth inhibition potency – SYBR Green, dry powder samples, dose response (AID 1159566);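 also: potency for growth inhibition with lower SYBR green DNA signal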", "assay_type": "functional, cell-based"}, "[9]": {"experiment": "toxicity to human hepatoma HepG2 cells – cell-based, cherry-picked samples, cytotoxicity control, dose response (AID 1159577)", "assay_type": "functional"}, "[10]": {"experiment": "growth inhibition of PfATP4-mutant resistant parasites – NITD609-resistant line, SYBR Green, dry powder, dose response (AID 1159571);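 also: parasites synchronized at ring stage by sorbitol before testing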", "assay_type": "functional, cell-based"}, "[11]": {"experiment": "rise of 2N DNA cells, HeLa – IC50, dose response (AID 1117349)", "assay_type": "functional, cell-based"}, "[12]": {"experiment": "CellTiter-Glo luminescence survival assay, SW480 colon tumor line, concentration-response curve, half-maximal inhibitory concentration (AID 1117338)", "assay_type": "functional"}, "[13]": {"experiment": "IC50 of insulin release inhibition, rat insulinoma INS-1E line, 5 mM glucose, cell-based (AID 1117331)", "assay_type": "functional"}, "[14]": {"experiment": "RKO cell viability reduction, dose response, CellTiter-Glo luminescence (AID 1117322)", "assay_type": "functional"}, "[15]": {"experiment": "cytotoxicity toward HCT116 cells – cell-based, CellTiter-Glo luminescence, IC50, dose response (AID 1117332)", "assay_type": "functional", "details": "HCT-116"}, "[16]": {"experiment": "SNU-C1 cell viability reduction, dose response, CellTiter-Glo luminescence (AID 1117323)", "assay_type": "functional, cell-based"}, "[17]": {"experiment": "glucagon-like peptide-1 release potency in STC-1, concentration-response, half-maximal inhibitory concentration in the STC-1 line (AID 1117345)", "assay_type": "functional, cell-based"}, "[18]": {"experiment": "cytotoxicity toward Colo320 cells – cell-based, CellTiter-Glo luminescence, IC50, dose response (AID 1117334)", "assay_type": "functional", "details": "COLO 320"}, "[19]": {"experiment": "rise of 4N DNA cells, HeLa – IC50, dose response (AID 1117351)", "assay_type": "functional, cell-based"}, "[20]": {"experiment": "cytotoxicity toward HT-29 cells – cell-based, CellTiter-Glo luminescence, IC50, dose response (AID 1117330)", "assay_type": "functional"}, "[21]": {"experiment": "Reduced DLD-1 viability, concentration-response, CellTiter-Glo luminescence (AID 1117352)", "assay_type": "functional"}, "[22]": {"experiment": "HCT116 cell viability decrease, GSK3B pretreatment – CellTiter-Glo, IC50, dose response (AID 1117339)", "assay_type": "functional", "details": "HCT-116"}, "[23]": {"experiment": "Potency on glucagon-like peptide 1 release, dose-response in NCI-H716 cell line, half maximal inhibitory concentration (AID 1117344)", "assay_type": "functional, cell-based"}, "[24]": {"experiment": "cytotoxicity in MITF-independent A375 cells – cell-based, CellTiter-Glo luminescence, dry powder, set 4, counter-screen for MITF inhibitor project, dose response (AID 624364);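 also: A375 melanoma cells are MITF independent so this is a counter screen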", "assay_type": "functional", "details": "A-375"}, "[25]": {"experiment": "viability loss in MITF-independent A375 cells – cell-based, CellTiter-Glo luminescence, dry powder, set 2, counter-screen for MITF inhibitor project, dose response (AID 624489);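 also: actives are compounds lowering A375 viability meaning general cytotoxicity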", "assay_type": "functional", "details": "A-375"}, "[26]": {"experiment": "Late stage assay provider results from the probe development effort to identify inhibitors of the Plasmodium falciparum M18 Aspartyl Aminopeptidase (M18AAP): radiolabel-based cell-based dose response assay to identify compounds that inhibit P. falciparum growth in RBCs, Set 2..", "assay_type": "functional"}, "[27]": {"biological_target": "RNA-editing ligase 1, mitochondrial (Trypanosoma brucei brucei, UniProt P86926)", "sequence (P86926 whole entry)": "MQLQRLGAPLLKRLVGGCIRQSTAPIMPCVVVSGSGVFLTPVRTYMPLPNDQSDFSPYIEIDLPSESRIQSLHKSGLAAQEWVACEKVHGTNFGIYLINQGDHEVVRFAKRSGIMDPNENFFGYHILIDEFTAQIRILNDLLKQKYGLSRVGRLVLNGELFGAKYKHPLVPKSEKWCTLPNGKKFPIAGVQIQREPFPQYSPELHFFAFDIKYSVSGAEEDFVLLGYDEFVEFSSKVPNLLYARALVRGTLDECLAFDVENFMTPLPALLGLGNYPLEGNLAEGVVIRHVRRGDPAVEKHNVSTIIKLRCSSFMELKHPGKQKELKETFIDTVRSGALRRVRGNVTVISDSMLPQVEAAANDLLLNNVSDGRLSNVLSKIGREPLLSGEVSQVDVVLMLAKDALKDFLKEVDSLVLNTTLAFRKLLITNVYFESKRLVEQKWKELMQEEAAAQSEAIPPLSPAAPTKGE", "experiment": "inhibition of trypanosome RNA editing ligase – biochemical, fluorescence, Trypanosoma brucei, dose response (AID 1117295)", "assay_type": "functional"}, "[28]": {"experiment": "toxicity to A549 lung cells – cell-based, plate reader, dry powder, set 6, cytotoxicity control, dose response (AID 743312)", "assay_type": "functional"}, "[29]": {"biological_target": "T1, Low molecular weight phosphotyrosine protein phosphatase (Homo sapiens, UniProt P24666)", "T1 sequence (P24666 whole entry)": "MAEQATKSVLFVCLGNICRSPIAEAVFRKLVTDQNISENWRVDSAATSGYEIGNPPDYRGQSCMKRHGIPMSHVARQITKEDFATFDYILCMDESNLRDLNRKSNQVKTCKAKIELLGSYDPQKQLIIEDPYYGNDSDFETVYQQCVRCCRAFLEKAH", "experiment": "inhibition of LMPTP-A enzymatic activity – biochemical, OMFP substrate, fluorescence intensity, set 2, dose response (AID 743307)", "assay_type": "functional"}, "[30]": {"biological_target": "T1, Low molecular weight phosphotyrosine protein phosphatase", "experiment": "inhibition of human LMPTP enzyme activity – biochemical, absorbance, pNPP substrate, LMPTP-A isoform, set 2, orthogonal assay, dose response (AID 743308)", "assay_type": "functional"}}, "note": "The source made the active and inactive calls."}
{"smiles": "Cc1c(C(=O)NCc2ccc3c(c2)OCCO3)sc(=O)n1Cc1ccccc1F", "values": [{"measurement": "AC50", "setting": "[1]", "value": "> 52 µM (inactive)"}]}
{"smiles": "Cc1cccc(-c2ccc([C@H]3[C@H]4CN(S(=O)(=O)c5cccc(C)c5)CCCCN4[C@H]3CO)cc2)c1", "values": [{"measurement": "AC50", "setting": "Paired box protein Pax-8", "value": "7.45 µM (active)"}, {"measurement": "AC50", "setting": "[2]", "value": "43.5 µM (active)"}, {"measurement": "AC50", "setting": "[3]", "value": "67.1 µM (active)"}, {"measurement": "AC50", "setting": "[4]", "value": "44.6 µM (active)"}, {"measurement": "AC50", "setting": "[5]", "value": "2.07 µM (active)"}, {"measurement": "AC50", "setting": "[6]", "value": "> 100 µM (inactive)"}, {"measurement": "AC50", "setting": "[7]", "value": "2.62 µM (active)"}, {"measurement": "AC50", "setting": "[8]", "value": "1.19 µM (active)"}, {"measurement": "AC50", "setting": "[9]", "value": "> 39 µM (inactive)"}, {"measurement": "AC50", "setting": "[10]", "value": "1.42 µM (active)"}]}
{"smiles": "CN1CCCC(CC2c3ccccc3Sc3ccccc32)C1", "note": "(stereo unspecified)", "values": [{"measurement": "IC50", "setting": "[11]", "value": "> 10 µM (inactive)"}, {"measurement": "IC50", "setting": "[12]", "value": "4.7 µM (active)"}, {"measurement": "IC50", "setting": "[13]", "value": "> 11.1 µM (inactive)"}, {"measurement": "IC50", "setting": "[14]", "value": "3.49 µM (active)"}, {"measurement": "IC50", "setting": "[15]", "value": "> 20 µM (inactive)"}, {"measurement": "IC50", "setting": "[16]", "value": "15.1 µM (inactive)"}, {"measurement": "IC50", "setting": "[17]", "value": "> 40 µM (inactive)"}, {"measurement": "IC50", "setting": "[18]", "value": "> 20 µM (inactive)"}, {"measurement": "IC50", "setting": "[19]", "value": "> 10 µM (inactive)"}, {"measurement": "IC50", "setting": "[20]", "value": "6.43 µM (inactive)"}, {"measurement": "IC50", "setting": "[21]", "value": "> 20 µM (inactive)"}, {"measurement": "IC50", "setting": "[22]", "value": "8.68 µM (inactive)"}, {"measurement": "IC50", "setting": "[23]", "value": "> 40 µM (inactive)"}]}
{"smiles": "CCN1CCN(C2=C(NC(=O)c3ccc(Br)cc3)C(=O)c3ccccc3C2=O)CC1", "values": [{"measurement": "AC50", "setting": "[24]", "value": "15.2 µM (active)"}, {"measurement": "AC50", "setting": "[25]", "value": "6.71 µM (active)"}]}
{"smiles": "Oc1ccc(C2CCN(c3ccnc4ccccc34)CC2)cc1O", "values": [{"measurement": "IC50", "setting": "[26]", "value": "1.3 µM (active)"}]}
{"smiles": "COC(=O)C1=C(C)N(Cc2ccc(C(F)(F)F)cc2)C(NCc2ccccc2C(F)(F)F)=NC1c1cccc(Cl)c1", "note": "(stereo unspecified)", "values": [{"measurement": "IC50", "setting": "[27]", "value": "> 96.6 µM (inactive)"}]}
{"smiles": "Cc1ccc(C(C)C)c(OCCn2c(S)nc3ccccc32)c1", "values": [{"measurement": "AC50", "setting": "[28]", "value": "22 µM (active)"}]}
{"smiles": "Fc1ccc(-c2cc(NCCCN3CCCCC3)c3ccccc3n2)cc1", "values": [{"measurement": "IC50", "setting": "[29]", "value": "1.4 µM (active)"}, {"measurement": "IC50", "setting": "[30]", "value": "3.27 µM (active)"}]}
